Assay [1] relates to 5-LOX product formation (FLAP) in human monocytes. In words: 5-LOX product formation in intact human monocytes stimulated with Ca2+-ionophore A23187. In kind it is cell-based. The note with it: Monocyte, 5 h, read-out: IC50, formation of LTB4 and its isomers and of 5-H(p)ETE (5-LOX product formation). The protocol: Peripheral blood (University Hospital Jena, Germany) was collected from fasted healthy adult donors that were informed about the aim of the study and gave written consent. The protocols for experiments with neutrophils or monocytes were approved by the ethical commission of the Friedrich-Schiller-University Jena (approval number 4292-12/14). All methods were performed in accordance with the relevant guidelines and regulations. Leukocyte concentrates were obtained by centrifugation (4000 × g, 20 min, 20 °C) of heparinized blood preparations. Neutrophils and monocytes were immediately isolated as described before. In brief, leukocyte concentrates were subjected to dextran sedimentation and centrifuged on lymphocyte separation medium (LSM 1077, PAA, Coelbe, Germany). For isolation of pelleted neutrophils, remaining erythrocytes were removed by hypotonic lysis, washed twice with ice-cold PBS and resuspended in medium to a cell density described for the respective experiments. […]
Human recombinant 5-LOX was expressed in E.coli BL21 transformed with pT3-5-LOX plasmid at 30 °C overnight as described before. […] After elution with methanol, samples were analyzed by RP-HPLC using a C-18 Radial-PAK column (Waters, Eschborn, Germany). […]

The subject of assay [2] is zymosan-induced peritonitis. As to the kind of experiment: Zymosan-induced peritonitis mouse model. It is filed as in vivo. The note with it: for vascular permeability, % of vehicle control: 30 min after zymosan; for myeloperoxidase activity / myeloperoxidase activity, % of vehicle control / leukocyte recruitment: 4 h after zymosan. The procedure: The animal studies are reported in accordance with the ARRIVE guidelines for reporting animal research. Male CD-1 mice (33–39 g, 8–9 weeks, Charles River Laboratories, Calco, Italy) were housed in a controlled environment (21 ± 2 °C) and provided with standard rodent chow and water ad libitum. Mice received a standard diet containing 5.7% fat, 18.9% protein and 57.3% carbohydrate (Global Diet 2018, ENVIGO, Italy). The fatty acid composition was according to Matias et al.[67].
Prior to experiments, all mice were allowed to acclimate for 5 days and kept at 12 h light–dark schedule, in which experiments were performed during the light phase. Animal care was in compliance with Italian regulations on protection of animals used for experimental and other scientific purpose (Ministerial Decree 116/92) and with the European Economic Community regulations (Official Journal of E.C. L 358/1 12/18/1986). Animal studies were approved by the local ethical committee of the University of Naples Federico II on 27 February 2014 (approval number 2014/18760). […] Zymosan (Sigma, Milan, Italy) was prepared and injected i.p. as a final suspension (2 mg/mL) in 0.9% saline solution after boiling, centrifugation and sonication. Peritoneal lavage (3 mL of cold PBS) was performed after CO2-euthanasia at indicated time points, followed by 60 sec of gentle manual massage. Two mL of exudates were collected and infiltrated cells were determined using a Burker chamber and vital trypan blue staining. Pelleted samples (18,000 × g, 5 min, 4 °C) were frozen (−80 °C) and assayed for myeloperoxidase (MPO) activity (pellet) or LTC4 and LTB4 formation (supernatant), respectively.
MPO of neutrophils was examined as follows: pellets from exudates were resuspended in PBS (50 mM, pH 6) containing 0.5% hexadecyltrimethyl-ammonium bromide and sonicated, followed by 3 freeze-thawing cycles and a final sonication. Supernatants of centrifuged samples (18,000 × g, 30 min) were added to a 96-well plate and reactions were initiated by addition of PBS (50 mM, pH 6) containing o-dianisidine (0.167 mg/mL) and hydrogen peroxide (0.0005%). Absorbance was monitored in the kinetic mode (Biorad Imark microplate) and levels of MPO were determined using a calibration curve with human neutrophils as reference standard. MPO levels were expressed as units MPO per mouse. LTC4 and LTB4 formation within the supernatants were determined by EIA (Enzo Life Sciences International Inc., Lörrach, Germany) according to manufacturer’s protocol.
Vascular permeability was assessed according to a previous report. Briefly, 0.3 mL of 0.9% saline solution supplemented with Evans blue dye (40 mg/kg) was injected intravenously (i.v.) into the caudal vein followed by immediate peritonitis induction (using zymosan). After 30 min, peritoneal lavage exudates of CO2-euthanized were collected as described above. Absorbance of the centrifuged supernatants (3,000 × g, 5 min) was measured at 650 nm (Beckman Coulter DU730).

Where [3] appears, read: mice, 1 mg/kg i.p. 30 min before zymosan.

Two compounds from paper PMC5571211 (Scientific Reports, 2017) can be followed below.

As a reminder, the IC50 is the concentration at which inhibition is half-maximal.

Like-named read-outs stand apart in the source and are kept apart here.

As to `Cc1cc(OCc2nc3ccccc3s2)ccc1NC(=O)Nc1ccc(Cl)c(Cl)c1` [diflapolin, N-[4-(benzothiazol-2-ylmethoxy)-2-methylphenyl]-N′-(3,4-dichlorophenyl)urea], in assay [1] (Homo sapiens), the IC50 turned out to be 30 nM. For the same compound, in assay [2] (mice, 10 mg/kg i.p.), the “vascular permeability, % of vehicle control” value is 55.7 ± 14.4 % of vehicle control; the myeloperoxidase activity worked out at 0.65 ± 0.15 U/mL; the “myeloperoxidase activity, % of vehicle control” value is listed as 52.8 ± 12.2 % of vehicle control. Also, the LTC4 peritoneal levels result in assay [2] (mice, 1, 3 and 10 mg/kg i.p. 30 min before zymosan, analysed 30 min after zymosan) is on record as “significant reduction”. The LTB4 peritoneal levels entry in assay [2] (mice, 1, 3 and 10 mg/kg i.p. 30 min before zymosan, analysed 4 h after zymosan) is “significant reduction”. Besides, the leukocyte recruitment entry in assay [2] (mice, 1, 3 and 10 mg/kg i.p., dose-dependent) is “block of leukocyte recruitment”.
For the compound `CC(C)c1ccc2c(c1)c(SC(C)(C)C)c(CC(C)(C)C(=O)O)n2Cc1ccc(Cl)cc1` [MK886, 3-[1-(4-chlorobenzyl)-3-t-butyl-thio-5-isopropylindol-2-yl]-2,2 - dimethylpropanoic acid], in assay [1] (intact human monocytes, Ca2+-ionophore A23187, no AA supplementation), the IC50 was approximately 3 nM. In addition, in assay [2] (setting [3]), the LTB4 peritoneal levels result is “comparable to the effect of MK886” and the LTC4 peritoneal levels entry is listed as “comparable to the effect of MK886”. For the same compound, in assay [2] (mice, 1 mg/kg i.p.), the myeloperoxidase activity is reported as 0.72 ± 0.13 U/mL and the “myeloperoxidase activity, % of vehicle control” value is listed as 58.5 ± 10.6 % of vehicle control. In assay [2] (mice, 3 mg/kg i.p.), the “vascular permeability, % of vehicle control” value is given as 48.6 ± 3.2 % of vehicle control. Further, the leukocyte recruitment entry in assay [2] (mice, MK886 i.p.) is recorded as “block of leukocyte recruitment”.
